Test results reported in US20110021640A1 (priority 2009, published 2011).

Target: T1, calf spleen adenosine deaminase (Bos taurus, UniProt P56658)
T1 construct: The calf spleen adenosine deaminase (Specific Activity of 178 Units/mg protein) is purchased from Sigma Chemical Company; purchased Sigma Chemical Company, St Louis, Mo; host or cells: calf spleen (tissue-derived enzyme)
T1 sequence (P56658 1-363): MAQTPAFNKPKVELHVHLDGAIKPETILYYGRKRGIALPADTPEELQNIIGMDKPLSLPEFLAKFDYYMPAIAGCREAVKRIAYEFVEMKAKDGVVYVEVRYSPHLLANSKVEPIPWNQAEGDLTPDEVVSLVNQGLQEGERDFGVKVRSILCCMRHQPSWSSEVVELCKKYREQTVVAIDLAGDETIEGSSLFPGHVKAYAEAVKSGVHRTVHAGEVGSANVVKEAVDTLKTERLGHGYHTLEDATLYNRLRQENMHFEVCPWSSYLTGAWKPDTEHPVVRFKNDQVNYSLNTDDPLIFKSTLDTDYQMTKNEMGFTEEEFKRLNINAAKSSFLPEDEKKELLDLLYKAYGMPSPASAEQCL
Experiment: Adenosine Deaminase (ADA) Assay, spectrophotometric at 265 nm
Type: biochemical
Settings: Tris-HCl buffer 50 mM, pH 7.5, 25° C., adenosine substrate; dose-response (FIGS. 1 and 2); read-out: IC50, amount of the product per ml of the reaction mixture producing the enzyme inhibition by 50% (converted)
Description: The enzyme catalyzes the following reaction:
Adenosine+H2O→Inosine+NH3
The calf spleen adenosine deaminase (Specific Activity of 178 Units/mg protein) is purchased from Sigma Chemical Company, St Louis, Mo. The enzyme assay is carried out spectrophotometrically at 265 nm. The reaction mixture (in a 1-ml cuvette; diameter=1.0 cm) contains 0.9 ml of buffer (Tris-HCL buffer, 50 mM, pH 7.5), 25 μl of adenosine (2 mM), plus the enzyme, water and the extract to make 1 ml. The enzyme is added to start the reaction, and a decrease in absorbency at 265 nm is followed at 25° C. One unit of ADA activity is the amount of the enzyme that catalyzes 1 μmole of adenosine/min/ml of the reaction mixture.
The IC50 values have been determined by examining the dose-response effects of both products. The IC50 values represent the amount of the product per ml of the reaction mixture, producing the enzyme inhibition by 50%. In the enzyme assay, first a background reading is recorded on the chart for 1-2 min, followed by the addition of an appropriate amount of the enzyme to start the reaction, which is monitored spectrophotometrically.

- IC50: 50.8 µM
Structure (SMILES): Oc1ccc(/C=C/c2cc(O)cc(O)c2)cc1 [resveratrol, 3,5,4′-trihydroxystilbene]
